Results: publication PMC8069016, “Matrix Effects of the Hydroethanolic Extract of Calyces of Physalis peruviana L. on Rutin Pharmacokinetics in Wistar Rats Using Population Modeling” (Pharmaceutics, 2021)
Where two headings read alike, the source gives them in different places.

Assays:
[1] = Pharmacokinetics of quercetin (deconjugated Q3OG and Q3OS) after oral administration, non-compartmental analysis; format: in vivo, Wistar rats; conditions: p.o.; only quercetin after deconjugation of Q3OG and Q3OS was measurable
Description: (§1) The PK studies of rutin, both pure and from the extract of calyces of P. peruviana, were carried out using 50 male Wistar rats (7–11 weeks old and 250–300 g) obtained from the animal facility of the Department of Pharmacy of the Universidad Nacional de Colombia. The animals were kept under constant temperature conditions (22 ± 1 °C), with light/dark cycles of 12 h. They were provided with water and food ad libitum and fasted for 12 h before the assays. This protocol was approved by the ethics committee of the science faculty (Act 06, 2015, project 40831, 22 June 2015).
For intravenous (i.v.) administration, the extract was prepared in sodium chloride solution (0.9% NaCl), vortexed, and sonicated 3–4 times for 15 min. Rutin was first dissolved in DMSO and then diluted in 0.9% NaCl. The clear solutions were administrated via the lateral tail vein of the rats. […] Rutin doses below 1.45 (i.v.) or 75 (p.o.) mg/kg could not show enough quantifiable analytical signals in blood plasma. […]
Blood plasma aliquots (50 µL) were added to a chrysin standard solution (internal standard (IS)) at a final concentration of 1000 ng/mL. […] Another 50 µL of blood plasma aliquots with the IS were treated with β-glucuronidase/arylsulfatase (120 Fishman units) in order to indirectly quantify the Q3OG and quercetin-3-O-sulfate (Q3OS) present in these samples by conversion into the parent quercetin (deconjugation). […]

[2] = parameters: method as in doi:10.1016/j.tifs.2017.07.008, PMID 32162346, PMID 30614249; conditions: low solubility and low permeability; cited from earlier work
[3] = Pharmacokinetics of rutin after intravenous administration, non-compartmental analysis; format: in vivo, Wistar rats; conditions: for AUC(0-inf) / MRT / half-life / clearance / Vd: male, Wistar, rat, iv; for Vd: read-out: Vdss
Description: as §1
For intravenous (i.v.) administration, the extract was prepared in sodium chloride solution (0.9% NaCl), vortexed, and sonicated 3–4 times for 15 min. Rutin was first dissolved in DMSO and then diluted in 0.9% NaCl. The clear solutions were administrated via the lateral tail vein of the rats. For the oral route (p.o.) experiments, the extract and rutin were suspended in water close to the time for oral gavage dosing. […] Rutin doses below 1.45 (i.v.) or 75 (p.o.) mg/kg could not show enough quantifiable analytical signals in blood plasma. For the extract, the doses were close to the active ones, according to previous studies by our group.
Samples of the animals’ blood (approximately 250 µL) were taken by puncture in the lateral tail vein and collected in heparinized tubes at times 0, 0.05, 0.166, 0.333, 0.5, 0.75, 1, 1.5, 2, 3, 4, 6, 8, and 12 h for the i.v. experiments and at times 0, 0.083, 0.25, […], 0.75, 1, 2, 3, 4, 6, 8, 10, 12, and 24 h for the p.o. experiments.
Blood plasma aliquots (50 µL) were added to a chrysin standard solution (internal standard (IS)) at a final concentration of 1000 ng/mL. Proteins were precipitated with methanol (1:2 v:v), and clear supernatants were obtained by centrifugation at 1200× g and at 4 °C for 15 min; 6 µL of each aliquot was used for instrumental analyses. Another 50 µL of blood plasma aliquots with the IS were treated with β-glucuronidase/arylsulfatase (120 Fishman units) in order to indirectly quantify the Q3OG and quercetin-3-O-sulfate (Q3OS) present in these samples by conversion into the parent quercetin (deconjugation). The deconjugation reaction was promoted by incubating the samples with the enzymes at pH 5.5 and 37 °C for 30 min. Reactions with the Q3OG standard (10,000 ng/mL) and blank blood plasma were included in each analysis set as positive and negative controls, respectively. After the reaction, proteins were precipitated, as indicated above.
Rutin and quercetin quantification was carried out by UHPLC-UV using a Chromaster RS chromatograph (Hitachi, Tokyo, Japan) and a Kinetex® EVO C18 column (2.6 µm, 100 × 2.1 mm; Phenomenex, Torrance, CA, USA) with an oven setting at 30 °C and a UV detector at 260 nm. The mobile phase consisted of 0.1% formic acid in water (A) and in acetonitrile (B), flowing at 0.5 mL/min in a gradient from 75% A to 65% A up to 9.3 min and 5 min of re-equilibration. The method was validated according to FDA guidelines.
The PK parameters of rutin and quercetin (produced by deconjugation of Q3OG and Q3OS) were first determined by non-compartmental analysis (NCA) using the software program Pkanalix 2019R1 (Lixoft®, Paris, France), set to linear trapezoidal integral mode. The area under the curve to infinity (AUC0-INF), clearance (Cl), volume of distribution at the steady state (Vdss), volume of distribution associated with the terminal phase (Vdz), first-order rate constant of elimination (k), terminal half-life (t1/2), mean residence time (MRT), maximum observed concentration (Cmax), and time of maximum observed concentration (tmax) were determined for the analytes detected for each intervention.

[4] = Population pharmacokinetic modeling of rutin, intravenous administration; format: in vivo, Wistar rats; conditions: rutin i.v.; for k12 pop / k21 pop / k pop / V_pop: Table S1
Description: Population pharmacokinetic (PopPK) modeling for rutin and quercetin (produced by deconjugation of Q3OG and Q3OS) was performed using the software program Monolix 2019R1 (Lixoft®, Paris, France). One- and two-compartment structural models with first-order elimination were evaluated, and double first-order absorption was included for the oral dosing experiments. Analyses of the categorical covariates (pure rutin, extract, and doses) were performed, and those that were significant were added to the model (p < 0.05 for Pearson’s and Wald tests with stochastic approximation). Correlations between random effects of the parameters were also tested and added to the model, where appropriate (p < 0.05 for t-test). The final model, including the model of the residual error, was selected based on the observation of individual fit plots, Akaike’s information criteria (AIC) values, visual assessment of the observation-versus-prediction plot, the precision of the estimated parameters, and evaluation of the distribution of residuals. The model was internally validated by a visual predictive check (VPC) with 1000 simulated data.
The general model equation for the PK parameters was (2) Pi=Ppop+βcovariate n+ηi,p, where Pi is the individual parameter, Ppop is the population parameter, β is a parameter representing the variability due to the significant covariate n, and η(i,p) is the individual deviation from Ppop. According to the probability distribution of individual parameters, P in the equation could be expressed as logP or logitP (logP/((1 − P)).
Rutin (i.v.) from both sources was better fitted to a two-compartment model described by the following parameters: volume of the central compartment (V), k, and the distribution rate constants k12 and k21 (Figure 3a). The […] differential equations representing this model are expressed in Equations (3) and (4), where X1 and X2 are the amounts of the drug in the central and peripheral compartments, respectively. (3) dX1/dt=k21X2−k12+kX1 (4) dX2/dt=k12X1−k21X2
The population parameters in Table 4 correspond to those of pure rutin (for the dosage set) that was used as a reference in the analysis of covariates. A similarity was noted between the values for Vpop (0.0646 L/kg) and Vdz of pure rutin from the NCA, especially at 2.9 mg/kg (0.068 L/kg). The Clpop parameter, estimated from Vpop and kpop, was equivalent to the Cl of pure rutin from the NCA (in both cases 0.095 L/h/kg for the set of doses). […] Equations (5)–(8) describe the model of covariates, where η is the individual deviation from Ppop. (5) log(V/1−V)=log(Vpop/1−Vpop)+βVGEXT+ηV (6) logk=logkpop+βkGEXT+ηk (7) logk12=logk12pop (8) logk21=logk21pop

[5] = Stability in plasma (bioanalytical method validation); format: in vitro ADME, rats; conditions: Wistar, rat; plasma at acidic pH; 2 h at 4 °C, 30 d at −80 °C, and 3 freeze/thaw cycles
Description: Rutin and quercetin quantification was carried out by UHPLC-UV using a Chromaster RS chromatograph (Hitachi, Tokyo, Japan) and a Kinetex® EVO C18 column (2.6 µm, 100 × 2.1 mm; Phenomenex, Torrance, CA, USA) with an oven setting at 30 °C and a UV detector at 260 nm. The mobile phase consisted of 0.1% formic acid in water (A) and in acetonitrile (B), flowing at 0.5 mL/min in a gradient from 75% A to 65% A up to 9.3 min and 5 min of re-equilibration. The method was validated according to FDA guidelines. The UHPLC-UV method used for rutin and quercetin quantification in the blood plasma samples was selective and specific for these analytes and for the IS (Figure S2) and met all the criteria of the FDA guidelines. Linearity was described for the equations y = 0.00042x + 0.00910 (r^2 0.9996) and y = 0.00056 − 0.00767 (r^2 0.99980) for rutin and quercetin, respectively, at the concentration range from 100 to 10,000 ng/mL with a 1/x^2 weighting factor. Accuracy and precision were ≥85.6% (as recovery) and ≤7.2% (as variation coefficient), respectively, for both analytes, and these parameters were not affected by dilutions of over-concentrated samples up to 20 times the upper limit of quantification (recovery ≥ 86.3%).

[6] = rutin in plasma, pure rutin i.v. 1.45 mg/kg
[7] = rutin in plasma, pure rutin i.v. 2.9 mg/kg
[8] = run Pure rutin and extract model: final model
[9] = run Pure rutin and extract model: model of covariate 1
[10] = run Pure rutin: one compartment model, first order elimination
[11] = run Pure rutin: selection of model error and final model
[12] = run Pure rutin: two-compartment model, first order elimination
[13] = two-compartment popPK model, pure rutin (dosage set) as reference

## C[C@@H]1O[C@@H](OC[C@H]2O[C@@H](Oc3c(-c4ccc(O)c(O)c4)oc4cc(O)cc(O)c4c3=O)[C@H](O)[C@@H](O)[C@@H]2O)[C@H](O)[C@H](O)[C@H]1O [Rutin, quercetin-3-O-rutinoside]
[1]
  plasma concentrations of rutin or free quercetin after oral administration: did not allow measurable plasma concentrations of rutin or free quercetin
[2]
  biopharmaceutical classification system class: class IV
[3]; [6]
  AUC(0-inf): 14900 ng·h/mL
  MRT: 64.8 ± 10.6 min
  half-life: 39.6 ± 7.8 min
  Vd: 0.11 ± 0.0306 L/kg
  AUC/dose × 10^−3: 10,243.52 ± 1743.478 h/L
  Vdz: 0.096 ± 0.027 L/kg
  k: 1.08 ± 0.195 h⁻¹
[3]; rutin in plasma, pure rutin i.v. 1.45 mg/kg, read-out: Cl (converted)
  clearance: 1.67 mL/min/kg
[3]; [7]
  AUC(0-inf): 33900 ng·h/mL
  MRT: 48.6 ± 3.18 min
  half-life: 32.4 ± 3.72 min
  Vd: 0.07 ± 0.009 L/kg
  AUC/dose × 10^−3: 11,701.24 ± 992.522 h/L
  k: 1.29 ± 0.159 h⁻¹
[3]; rutin in plasma, pure rutin i.v. 2.9 mg/kg, read-out: Cl (converted)
  clearance: 1.5 mL/min/kg
[3]; plasma, rutin i.v., pure rutin, set of doses, read-out: Cl from the NCA (converted)
  clearance: 1.58 mL/min/kg
[3]; rutin in plasma, pure rutin i.v. 2.9 mg/kg, 2.9 mg/kg
  Vdz: 0.068 ± 0.012 L/kg
[3]; rutin in plasma, pure rutin i.v. 2.9 mg/kg, listed as pure rutin, 2.9 mg/kg
  Vdz: 0.068 L/kg
[4]; [8]
  k12 pop: 2.6 h⁻¹
  k21 pop: 13.6 h⁻¹
  k pop: 1.47 h⁻¹
[4]; [9]
  V_pop: 5.9 e-5
  k12 pop: 2.62 h⁻¹
  k21 pop: 9.67 h⁻¹
  k pop: 1.58 h⁻¹
[4]; [10]
  V_pop: 7.81 e−5
  k pop: 1.22 h⁻¹
[4]; [11]
  V_pop: 6.4e -5
  k12 pop: 2.5 h⁻¹
  k21 pop: 16.8 h⁻¹
  k pop: 1.48 h⁻¹
[4]; [12]
  V_pop: 5.89e -5
  k12 pop: 5.24 h⁻¹
  k21 pop: 19.4 h⁻¹
  k pop: 1.61 h⁻¹
[4]; estimated from Vpop and kpop, set of doses
  Clpop: 1.58 mL/min/kg
[4]; [13]
  Vpop (volume of the central compartment): 0.0646 L/kg
  k12_pop: 2.6 h⁻¹
  k21_pop: 13.6 h⁻¹
  kpop (first-order rate constant of elimination): 1.47 h⁻¹

## O=c1c(O)c(-c2ccc(O)c(O)c2)oc2cc(O)cc(O)c12 [quercetin]
[5]
  recovery: ≥ 87.8%
